Where two headings read alike, the source gives them in different places.
What was measured:
[1] = target: T1, human Cav3.2 T-type Ca2+ channel (Homo sapiens, UniProt O95180); assay: Inhibitory effect for intracellular calcium response via Cav3.2 T-type Ca2+ channels (FLIPR Calcium 3 Assay Kit); type: cell-based
T1 construct: expressed in transfected cells; host or cells: KJMGER8 cells (Namalwa cell-derived cell line)

[2] = test system: morphine-induced pruritus mice; assay: Inhibitory effect for pruritus in morphine-induced pruritus mice; type: in vivo; settings: given 30 minutes or 1 hour before intrathecal morphine, scratching counted for 30 minutes, male ddY mice
Protocol: Inhibitory Effect for Pruritus in Morphine-Induced Pruritus Mice
Morphine (1 nmol/5 μL, dissolved in physiological saline) or physiological saline was intrathecally administered between the fifth and sixth lumbar vertebrae of male ddY mice using a microsyringe fitted with a 30-gauge injection needle. Mice to which only morphine was administered were referred to as a control group, and mice to which only physiological saline was administered were referred to as a physiological saline-administered group.
The number of scratching behavior with the hind legs which began to be observed immediately after the morphine administration was measured for 30 minutes. Because mice show continuous scratching actions in each scratching behavior, a series of such actions was counted as a single scratching behavior.
Each test compound was administered 30 minutes or 1 hour before the morphine administration. The test compound was suspended in a 0.5% methylcellulose solution and was prepared plural administration solutions of different concentrations, and each of them was orally administered in a volume of 10 mL/kg.

[3] = human Cav3.2-expressing KJMGER8 cells (Namalwa-derived), calcium response induced by 5 mmol/L CaCl2, 3 μmol/L mibefradil as reference, read-out: IC50 for the human Cav3.2 T-type Ca2+ current

T1 sequence (O95180 whole entry): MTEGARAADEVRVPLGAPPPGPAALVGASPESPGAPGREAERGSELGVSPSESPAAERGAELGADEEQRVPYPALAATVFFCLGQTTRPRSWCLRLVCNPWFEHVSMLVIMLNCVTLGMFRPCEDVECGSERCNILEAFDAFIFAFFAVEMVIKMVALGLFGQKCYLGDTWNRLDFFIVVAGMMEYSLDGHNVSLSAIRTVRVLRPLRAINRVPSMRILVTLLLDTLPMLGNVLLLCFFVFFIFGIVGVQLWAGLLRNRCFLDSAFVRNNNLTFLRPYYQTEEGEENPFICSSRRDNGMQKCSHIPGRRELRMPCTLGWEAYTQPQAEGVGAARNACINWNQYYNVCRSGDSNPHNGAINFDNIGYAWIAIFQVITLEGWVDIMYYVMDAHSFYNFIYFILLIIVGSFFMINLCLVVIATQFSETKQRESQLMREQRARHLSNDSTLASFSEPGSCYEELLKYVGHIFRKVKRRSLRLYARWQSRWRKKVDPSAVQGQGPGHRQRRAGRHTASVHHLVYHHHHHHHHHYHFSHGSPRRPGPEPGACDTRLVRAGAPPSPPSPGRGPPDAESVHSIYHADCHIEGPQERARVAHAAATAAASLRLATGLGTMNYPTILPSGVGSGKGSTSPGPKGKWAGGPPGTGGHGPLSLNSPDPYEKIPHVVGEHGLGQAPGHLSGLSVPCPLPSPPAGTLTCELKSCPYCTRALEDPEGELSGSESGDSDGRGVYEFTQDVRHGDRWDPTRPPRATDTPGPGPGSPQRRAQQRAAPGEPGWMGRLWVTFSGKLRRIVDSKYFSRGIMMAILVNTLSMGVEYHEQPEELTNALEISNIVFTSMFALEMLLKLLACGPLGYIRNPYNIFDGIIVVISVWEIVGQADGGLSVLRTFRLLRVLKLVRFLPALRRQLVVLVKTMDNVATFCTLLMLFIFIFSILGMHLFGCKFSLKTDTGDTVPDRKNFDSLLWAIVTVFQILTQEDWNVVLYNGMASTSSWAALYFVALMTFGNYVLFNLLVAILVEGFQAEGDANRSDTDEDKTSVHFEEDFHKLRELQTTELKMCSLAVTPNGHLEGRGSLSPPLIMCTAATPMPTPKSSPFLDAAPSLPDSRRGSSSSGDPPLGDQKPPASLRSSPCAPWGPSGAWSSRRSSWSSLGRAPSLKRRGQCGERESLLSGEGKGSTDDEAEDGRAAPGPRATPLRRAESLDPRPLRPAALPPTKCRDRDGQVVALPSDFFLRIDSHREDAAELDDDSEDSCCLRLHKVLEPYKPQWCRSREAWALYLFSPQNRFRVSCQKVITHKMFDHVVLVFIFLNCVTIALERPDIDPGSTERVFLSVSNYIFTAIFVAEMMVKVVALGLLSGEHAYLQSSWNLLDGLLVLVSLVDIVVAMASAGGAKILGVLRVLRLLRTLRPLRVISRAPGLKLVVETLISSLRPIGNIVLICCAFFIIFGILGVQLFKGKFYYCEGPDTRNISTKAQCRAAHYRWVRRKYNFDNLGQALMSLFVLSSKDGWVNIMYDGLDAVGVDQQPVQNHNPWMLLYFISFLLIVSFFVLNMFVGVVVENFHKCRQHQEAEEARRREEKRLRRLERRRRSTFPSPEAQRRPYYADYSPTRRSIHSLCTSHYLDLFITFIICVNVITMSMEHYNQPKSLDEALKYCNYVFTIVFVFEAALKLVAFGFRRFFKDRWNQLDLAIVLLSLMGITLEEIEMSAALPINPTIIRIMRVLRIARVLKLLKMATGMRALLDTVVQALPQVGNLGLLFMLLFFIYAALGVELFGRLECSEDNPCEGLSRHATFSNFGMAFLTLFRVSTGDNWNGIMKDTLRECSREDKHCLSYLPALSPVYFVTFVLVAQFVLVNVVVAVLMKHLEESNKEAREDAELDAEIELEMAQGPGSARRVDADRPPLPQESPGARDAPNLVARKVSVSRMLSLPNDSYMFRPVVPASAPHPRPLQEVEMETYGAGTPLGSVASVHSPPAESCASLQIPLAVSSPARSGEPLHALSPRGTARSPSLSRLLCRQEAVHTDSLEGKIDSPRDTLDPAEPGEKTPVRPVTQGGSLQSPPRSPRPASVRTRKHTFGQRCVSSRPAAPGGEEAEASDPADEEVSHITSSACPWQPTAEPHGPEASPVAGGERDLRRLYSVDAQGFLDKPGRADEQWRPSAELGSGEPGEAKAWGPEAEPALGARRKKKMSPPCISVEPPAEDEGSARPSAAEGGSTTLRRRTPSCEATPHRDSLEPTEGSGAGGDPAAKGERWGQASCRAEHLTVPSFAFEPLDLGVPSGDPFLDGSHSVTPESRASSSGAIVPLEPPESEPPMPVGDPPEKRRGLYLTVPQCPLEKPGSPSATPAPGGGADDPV

Q: `[2H]C([2H])([2H])OC(C)(C)CNC(=O)c1cc2nc(C(C)(F)F)c(CC3CCC(F)(F)CC3)n2c(C#N)c1C` [Compound 190, 5-Cyano-3-[(4,4-difluorocyclohexyl)methyl]-2-(1,1-difluoroethyl)-N-(2-methoxy-d3-2-methylpropyl)-6-methylimidazo[1,2-a]pyridine-7-carboxamide] was tested. Which IC50 [1] did it give?
A: The IC50 was no more than 100 nM.

Q: What about the “inhibition of the increase of the scratching behavior in morphine-induced pruritus mice” value ([2]; oral dose of 10 mg/kg or less) of the same molecule?
A: Its value is “inhibited the increase of the scratching behavior”.

Q: `CC(C)(CNC(=O)c1cc(C#N)n2c(CC3CCC(F)(F)CC3)c(C(F)(F)F)nc2c1)S(C)(=O)=O` [Compound 189, 5-Cyano-3-[(4,4-difluorocyclohexyl)methyl]-N-[2-methyl-2-(methylsulfonyl)propyl]-2-(trifluoromethyl)imidazo[1,2-a]pyridine-7-carboxamide] was tested. Which IC50 [1, 3] did it give?
A: Its IC50 is no more than 100 nM.

Q: What about the “inhibition of the increase of the scratching behavior in morphine-induced pruritus mice” value ([2]; oral dose of 10 mg/kg or less) of the same molecule?
A: The value was “inhibited the increase of the scratching behavior”.

Q: How did the IC50 [1, 3] turn out when `N#Cc1cc(C(=O)N[C@H]2C[C@@H]3CC[C@H]2O3)cc2nc(C(F)(F)F)c(CC3CCC(F)(F)CC3)n12` [Compound 178, N-[(1R,2S,4S)-7-Oxabicyclo[2.2.1]heptan-2-yl]-5-cyano-3-[(4,4-difluorocyclohexyl)methyl]-2-(trifluoromethyl)imidazo[1,2-a]pyridine-7-carboxamide] was run?
A: Its IC50 is no more than 100 nM.

Q: And the “inhibition of the increase of the scratching behavior in morphine-induced pruritus mice” value ([2]; oral dose of 10 mg/kg or less)?
A: Its value is “inhibited the increase of the scratching behavior”.

Q: What does the source list for `COC(C)(C)CNC(=O)c1cc2nc(C(F)(F)F)c(CC3CCC(F)(F)CC3)n2c(C#N)c1Cl` [Compound 173, 6-Chloro-5-cyano-3-[(4,4-difluorocyclohexyl)methyl]-N-(2-methoxy-2-methylpropyl)-2-(trifluoromethyl)imidazo[1,2-a]pyridine-7-carboxamide]?
A: IC50 [1]: ≤ 100 nM; inhibition of the increase of the scratching behavior in morphine-induced pruritus mice ([2]; oral dose of 10 mg/kg or less): inhibited the increase of the scratching behavior

Q: Which results are given for `COC(C)(C)CNC(=O)c1cc(C#N)n2c(CC3CCC(F)(F)CC3)c(C(C)(F)F)nc2c1` [Compound 164, 5-Cyano-3-[(4,4-difluorocyclohexyl)methyl]-2-(1,1-difluoroethyl)-N-(2-methoxy-2-methylpropyl)imidazo[1,2-a]pyridine-7-carboxamide]?
A: IC50 [1]: ≤ 100 nM; inhibition of the increase of the scratching behavior in morphine-induced pruritus mice ([2]; oral dose of 10 mg/kg or less): inhibited the increase of the scratching behavior

Q: `CC(F)(F)c1nc2cc(C(=O)N[C@H]3C[C@@H]4CC[C@H]3O4)cc(C#N)n2c1CC1CCC(F)(F)CC1` [Compound 183, N-[(1R,2S,4S)-7-Oxabicyclo[2.2.1]heptan-2-yl]-5-cyano-3-[(4,4-difluorocyclohexyl)methyl]-2-(1,1-difluoroethyl)imidazo[1,2-a]pyridine-7-carboxamide] was tested. Which IC50 [1] did it give?
A: Its IC50 is no more than 100 nM.

Q: What about the “inhibition of the increase of the scratching behavior in morphine-induced pruritus mice” value ([2]; oral dose of 10 mg/kg or less) of the same molecule?
A: The value was “inhibited the increase of the scratching behavior”.

Q: With `[2H]C([2H])([2H])OC(C)(C)CNC(=O)c1cc(C#N)n2c(CC3CCC(F)(F)CC3)c(C(C)(F)F)nc2c1` [Compound 194, 5-Cyano-3-[(4,4-difluorocyclohexyl)methyl]-2-(1,1-difluoroethyl)-N-(2-methoxy-d3-2-methylpropyl)imidazo[1,2-a]pyridine-7-carboxamide] as the molecule, how does the IC50 [1] read?
A: The IC50 was no more than 100 nM.

Q: And the “inhibition of the increase of the scratching behavior in morphine-induced pruritus mice” value ([2]; oral dose of 10 mg/kg or less)?
A: The value was “inhibited the increase of the scratching behavior”.

Q: What does the source list for `[2H]C([2H])([2H])OC(C)(C)CNC(=O)c1cc(C#N)n2c(CC3CCC(F)(F)CC3)c(C(F)(F)F)nc2c1` [Compound 186, 5-Cyano-3-[(4,4-difluorocyclohexyl)methyl]-N-(2-methoxy-d3-2-methylpropyl)-2-(trifluoromethyl)imidazo[1,2-a]pyridine-7-carboxamide]?
A: IC50 [1]: ≤ 100 nM; inhibition of the increase of the scratching behavior in morphine-induced pruritus mice ([2]; oral dose of 10 mg/kg or less): inhibited the increase of the scratching behavior

Q: Which results are given for `CC(C)(CNC(=O)c1cc(Cl)n2c(CC3CCC(F)(F)CC3)c(C(F)(F)F)nc2c1)S(C)(=O)=O` [Compound 197, 5-Chloro-3-[(4,4-difluorocyclohexyl)methyl]-N-[2-methyl-2-(methylsulfonyl)propyl]-2-(trifluoromethyl)imidazo[1,2-a]pyridine-7-carboxamide]?
A: IC50 [1]: ≤ 100 nM; inhibition of the increase of the scratching behavior in morphine-induced pruritus mice ([2]; oral dose of 10 mg/kg or less): inhibited the increase of the scratching behavior

Q: For `Cc1cc(C(=O)NC2CCOCC2)cc2nc(C(F)(F)F)c(Cc3ccc(Cl)cc3)n12` [Compound 208, 3-(4-Chlorobenzyl)-5-methyl-N-(tetrahydro-2H-pyran-4-yl)-2-(trifluoromethyl)imidazo[1,2-a]pyridine-7-carboxamide], which IC50 [1] is on record?
A: Its IC50 is no more than 100 nM.

Q: What about the “inhibition of the increase of the scratching behavior in morphine-induced pruritus mice” value ([2]; oral dose of 10 mg/kg or less) of the same molecule?
A: Its value is “inhibited the increase of the scratching behavior”.

Q: What does the source list for `COC(C)(C)CNC(=O)c1cc(C#N)n2c(CC3CCC(F)(F)CC3)c(C(F)(F)F)nc2c1` [Compound 55, 5-Cyano-3-[(4,4-difluorocyclohexyl)methyl]-N-(2-methoxy-2-methylpropyl)-2-(trifluoromethyl)imidazo[1,2-a]pyridine-7-carboxamide]?
A: IC50 [1]: ≤ 100 nM; inhibition of the increase of the scratching behavior in morphine-induced pruritus mice ([2]; oral dose of 30 mg/kg or less): inhibited the increase of the scratching behavior

Q: With `O=C(NC1CCOCC1)c1cc2nc(C(F)(F)F)c(CC3CCC(F)(F)CC3)n2c(Cl)c1Cl` [Compound 193] as the molecule, how does the “inhibition of the increase of the scratching behavior in morphine-induced pruritus mice” value ([2]; oral dose of 10 mg/kg or less) read?
A: The value was “inhibited the increase of the scratching behavior”.

Q: With `CC(C)c1nc2cc(C(=O)N[C@H]3C[C@@H]4CC[C@H]3O4)cc(C#N)n2c1CC1CCC(F)(F)CC1` [Compound 180, N-[(1R,2S,4S)-7-Oxabicyclo[2.2.1]heptan-2-yl]-5-cyano-3-[(4,4-difluorocyclohexyl)methyl]-2-isopropylimidazo[1,2-a]pyridine-7-carboxamide] as the molecule, how does the IC50 [1] read?
A: The IC50 was no more than 100 nM.

Q: What about the “inhibition of the increase of the scratching behavior in morphine-induced pruritus mice” value ([2]; oral dose of 10 mg/kg or less) of the same molecule?
A: Its value is “inhibited the increase of the scratching behavior”.

Q: With `N#CC1(CNC(=O)c2cc(Cl)n3c(CC4CCC(F)(F)CC4)c(C(F)(F)F)nc3c2)CC1` [Compound 176, 5-Chloro-N-[(1-cyanocyclopropyl)methyl]-3-[(4,4-difluorocyclohexyl)methyl]-2-(trifluoromethyl)imidazo[1,2-a]pyridine-7-carboxamide] as the molecule, how does the IC50 [1, 3] read?
A: Its IC50 is no more than 100 nM.

Q: And the “inhibition of the increase of the scratching behavior in morphine-induced pruritus mice” value ([2]; oral dose of 10 mg/kg or less)?
A: The value was “inhibited the increase of the scratching behavior”.

Q: Which IC50 [1, 3] does the source give for `CN(C)CC(C)(C)CNC(=O)c1cc(C#N)n2c(CC3CCC(F)(F)CC3)c(C(F)(F)F)nc2c1` [Compound 182, 5-Cyano-3-[(4,4-difluorocyclohexyl)methyl]-N-[3-(dimethylamino)-2,2-dimethylpropyl]-2-(trifluoromethyl)imidazo[1,2-a]pyridine-7-carboxamide] here?
A: Its IC50 is no more than 100 nM.

Q: What about the “inhibition of the increase of the scratching behavior in morphine-induced pruritus mice” value ([2]; oral dose of 10 mg/kg or less) of the same molecule?
A: Its value is “inhibited the increase of the scratching behavior”.

Q: Which results are given for `N#Cc1cc(C(=O)NC2CCOCC2)cc2nc(C(F)(F)F)c(CC3CCC(F)(F)CC3)n12` [Compound 40]?
A: IC50 [1]: ≤ 100 nM; inhibition of the increase of the scratching behavior in morphine-induced pruritus mice ([2]; oral dose of 30 mg/kg or less): inhibited the increase of the scratching behavior

Q: For `Cc1c(C(=O)NC2CCOCC2)cc2nc(C(C)(F)F)c(CC3CCC(F)(F)CC3)n2c1C#N` [Compound 185, 5-Cyano-3-[(4,4-difluorocyclohexyl)methyl]-2-(1,1-difluoroethyl)-6-methyl-N-(tetrahydro-2H-pyran-4-yl)imidazo[1,2-a]pyridine-7-carboxamide], which IC50 [1] is on record?
A: Its IC50 is no more than 100 nM.

Q: And the “inhibition of the increase of the scratching behavior in morphine-induced pruritus mice” value ([2]; oral dose of 10 mg/kg or less)?
A: Its value is “inhibited the increase of the scratching behavior”.

Q: How did the “inhibition of the increase of the scratching behavior in morphine-induced pruritus mice” value ([2]; oral dose of 30 mg/kg or less) turn out when `O=C(NC1CC2(COC2)C1)c1cc(Cl)n2c(CC3CCC(F)(F)CC3)c(C(F)(F)F)nc2c1` [Compound 129, 5-Chloro-3-[(4,4-difluorocyclohexyl)methyl]-N-(2-oxaspiro[3.3]heptan-6-yl)-2-(trifluoromethyl)imidazo[1,2-a]pyridine-7-carboxamide] was run?
A: The value was “inhibited the increase of the scratching behavior”.

Q: Which results are given for `CC(F)(F)c1nc2cc(C(=O)NC3CCC(F)(F)CC3)c(Cl)cn2c1CC1CCC(F)(F)CC1` [Compound 15, 6-Chloro-N-(4,4-difluorocyclohexyl)-3-[(4,4-difluorocyclohexyl)methyl]-2-(1,1-difluoroethyl)imidazo[1,2-a]pyridine-7-carboxamide]?
A: IC50 [1]: ≤ 100 nM; inhibition of the increase of the scratching behavior in morphine-induced pruritus mice ([2]; oral dose of 30 mg/kg or less): inhibited the increase of the scratching behavior

Q: Which results are given for `Cc1c(C(=O)NC2CCOCC2)cc2nc(C(F)(F)F)c(CC3CCC(F)(F)CC3)n2c1C#N` [Compound 181, 5-Cyano-3-[(4,4-difluorocyclohexyl)methyl]-6-methyl-N-(tetrahydro-2H-pyran-4-yl)-2-(trifluoromethyl)imidazo[1,2-a]pyridine-7-carboxamide]?
A: IC50 [1, 3]: ≤ 100 nM; inhibition of the increase of the scratching behavior in morphine-induced pruritus mice ([2]; oral dose of 10 mg/kg or less): inhibited the increase of the scratching behavior

Q: How did the IC50 [1, 3] turn out when `N#Cc1cc(C(=O)NCC2CC2)cc2nc(C(F)(F)F)c(CC3CCC(F)(F)CC3)n12` [Compound 53, 5-Cyano-N-(cyclopropylmethyl)-3-[(4,4-difluorocyclohexyl)methyl]-2-(trifluoromethyl)imidazo[1,2-a]pyridine-7-carboxamide] was run?
A: Its IC50 is no more than 100 nM.

Q: And the “inhibition of the increase of the scratching behavior in morphine-induced pruritus mice” value ([2]; oral dose of 30 mg/kg or less)?
A: The value was “inhibited the increase of the scratching behavior”.
